Target: USP30 (Homo sapiens (Human), UniProt Q70CQ3)
Assay: USP30 biochemical IC50 assay
Conditions: read-out: IC50 range; fluorescence polarisation, TAMRA labelled peptide linked to ubiquitin; 30 min pre-incubation, read after 2 hr
Experimental: USP30 Biochemical IC50 Assay
Dilution plates were prepared at 21 times the final concentration (2100 μM for a final concentration of 100 μM) in 50% DMSO in a 96-well polypropylene V-bottom plate (Greiner #651201). A typical 8-point dilution series to be 100, 30, 10, 3, 1, 0.3, 0.1, 0.03 μM final. Reactions were performed in duplicate in black 384 well plates (small volume, Greiner 784076) in a final reaction volume of 21 μl. Either 1 μl of 50% DMSO or diluted compound was added to the plate. USP30 was diluted in reaction buffer (40 mM Tris, pH 7.5, 0.005% Tween 20, 0.5 mg/ml BSA, 5 mM—beta-mercaptoethanol) to the equivalent of 0.05 μl/well and 10 μl of diluted USP30 was added to the compound. Enzyme and compound were incubated for 30 min at room temp. Reactions were initiated by the addition of 50 nM of TAMRA labelled peptide linked to ubiquitin via an iso-peptide bond as fluorescence polarisation substrate. Reactions were read immediately after addition of substrate and following a 2 hr incubation at room temperature. Readings were performed on a Pherastar Plus (BMG Labtech). λ Excitation 540 nm; λ Emission 590 nm.

Chain of USP30 (Q70CQ3 57-517): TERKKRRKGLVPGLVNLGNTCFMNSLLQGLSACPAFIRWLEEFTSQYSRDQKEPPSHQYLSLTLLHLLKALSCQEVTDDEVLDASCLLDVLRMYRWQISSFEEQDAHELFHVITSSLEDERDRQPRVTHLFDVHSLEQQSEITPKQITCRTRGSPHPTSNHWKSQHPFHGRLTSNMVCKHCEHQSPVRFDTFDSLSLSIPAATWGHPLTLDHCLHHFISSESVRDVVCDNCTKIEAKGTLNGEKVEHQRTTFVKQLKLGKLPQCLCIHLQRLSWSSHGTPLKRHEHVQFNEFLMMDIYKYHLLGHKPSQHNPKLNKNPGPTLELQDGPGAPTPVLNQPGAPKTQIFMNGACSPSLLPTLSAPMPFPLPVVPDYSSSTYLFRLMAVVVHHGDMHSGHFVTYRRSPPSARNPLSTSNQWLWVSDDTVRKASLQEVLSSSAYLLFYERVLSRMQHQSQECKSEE

Row | IC50 [nM] | SMILES
1 | 100 to 1000 | N#CN1CC[C@@H](NS(=O)(=O)N2CCCn3nc(-c4ccccc4)cc32)C1 [Example 30, (R)—N-(1-cyanopyrrolidin-3-yl)-2-phenyl-6,7-dihydropyrazolo[1,5-a]pyrimidine-4(5H)-sulfonamide]
2 | < 100 | N#CN1CC[C@H](N2CCN(c3ccc(-c4ccncc4)cc3)S2(=O)=O)C1 [Example 32, (S)-3-(1,1-dioxido-5-(4-(pyridin-4-yl)phenyl)-1,2,5-thiadiazolidin-2-yl)pyrrolidine-1-carbonitrile]
3 | 100 to 1000 | N#CN1CCC(N2CCN(c3ccccc3)S2(=O)=O)C1 (stereo not shown) [Example 37, 3-(1,1-dioxido-5-phenyl-1,2,5-thiadiazolidin-2-yl)pyrrolidine-1-carbonitrile]
4 | < 100 | C[C@H]1CN(C#N)C[C@@H]1N1CCN(c2ccc(-c3ccccc3)cc2)S1(=O)=O [Example 39, (3R,4S)-3-(5-([1,1′-biphenyl]-4-yl)-1,1-dioxido-1,2,5-thiadiazolidin-2-yl)-4-methylpyrrolidine-1-carbonitrile]
5 | 100 to 1000 | C[C@H]1CN(C#N)C[C@@H]1N1CCN(c2cccc(N3CCOCC3)c2)S1(=O)=O [Example 41, (3S,4R)-3-methyl-4-(5-(3-morpholinophenyl)-1,1-dioxido-1,2,5-thiadiazolidin-2-yl)pyrrolidine-1-carbonitrile]
6 | 100 to 1000 | N#CN1CC[C@@H](N2CCN(c3ccc4nc(C(F)(F)F)[nH]c4c3)S2(=O)=O)C1 [Example 44, (R)-3-(1,1-dioxido-5-(2-(trifluoromethyl)-1H-benzo[d]imidazol-5-yl)-1,2,5-thiadiazolidin-2-yl)pyrrolidine-1-carbonitrile]
7 | 100 to 1000 | CN1CCN(c2cc(N3CCN([C@@H]4CCN(C#N)C4)S3(=O)=O)ccn2)CC1 [Example 52, (R)-3-(5-(2-(4-methylpiperazin-1-yl)pyridin-4-yl)-1,1-dioxido-1,2,5-thiadiazolidin-2-yl)pyrrolidine-1-carbonitrile]
8 | 100 to 1000 | CO[C@@H]1CCN(c2cccc(N3CCN([C@@H]4CCN(C#N)C4)S3(=O)=O)c2)C1 [Example 53, (R)-3-(5-(3-((R)-3-methoxypyrrolidin-1-yl)phenyl)-1,1-dioxido-1,2,5-thiadiazolidin-2-yl)pyrrolidine-1-carbonitrile]
9 | 100 to 1000 | CO[C@@H]1CCN(c2cc(N3CCN([C@@H]4CCN(C#N)C4)S3(=O)=O)ccn2)C1 [Example 54, (R)-3-(5-(2-((R)-3-methoxypyrrolidin-1-yl)pyridin-4-yl)-1,1-dioxido-1,2,5-thiadiazolidin-2-yl)pyrrolidine-1-carbonitrile]
10 | 100 to 1000 | COC1CN(c2cc(N3CCN([C@@H]4CCN(C#N)C4)S3(=O)=O)ccn2)C1 [Example 55, (R)-3-(5-(2-(3-methoxyazetidin-1-yl)pyridin-4-yl)-1,1-dioxido-1,2,5-thiadiazolidin-2-yl)pyrrolidine-1-carbonitrile]
11 | 100 to 1000 | COCCN(CCOC)c1cc(N2CCN([C@@H]3CCN(C#N)C3)S2(=O)=O)ccn1 [Example 56, (R)-3-(5-(2-(bis(2-methoxyethyl)amino)pyridin-4-yl)-1,1-dioxido-1,2,5-thiadiazolidin-2-yl)pyrrolidine-1-carbonitrile]
12 | 100 to 1000 | N#CN1CCC(NS(=O)(=O)Nc2cccc(-c3ccccc3)c2)C1 (stereo not shown) [Example 57, N-biphenyl-3-yl-N′-(1-cyanopyrrolidin-3-yl)sulfuric diamide]
13 | 100 to 1000 | N#CN1CCC(NS(=O)(=O)Nc2ccc(-c3ccccc3)cc2)C1 (stereo not shown) [Example 58, N-biphenyl-4-yl-N′-(1-cyanopyrrolidin-3-yl)sulfuric diamide]
14 | 100 to 1000 | N#CN1CCC(NS(=O)(=O)N2CCC(c3ccccc3)CC2)C1 (stereo not shown) [Example 59, N-(1-cyanopyrrolidin-3-yl)-4-phenylpiperidine-1-sulfonamide]

The next lines start with the compound.

Row | SMILES | IC50 [nM]
15 | N#CN1CC[C@H](N2CCN(c3ccccc3)S2(=O)=O)C1 [Example 31, (S)-3-(1,1-dioxido-5-phenyl-1,2,5-thiadiazolidin-2-yl)pyrrolidine-1-carbonitrile] | 1000 to 10000
16 | N#CN1CC[C@H](N2CCN(c3cccc(-c4ccncc4)c3)S2(=O)=O)C1 [Example 33, (S)-3-(1,1-dioxido-5-(3-(pyridin-4-yl)phenyl)-1,2,5-thiadiazolidin-2-yl)pyrrolidine-l-carbonitrile] | < 100
17 | N#CN1CC[C@H](N2CCN(c3ccc(-c4ccccc4)cc3)S2(=O)=O)C1 [Example 34] | < 100
18 | N#CN1CC[C@H](N2CCN(c3cccc(-c4ccccc4)c3)S2(=O)=O)C1 [Example 35, (S)-3-(5-([1,1′-biphenyl]-3-yl)-l,1-dioxido-1,2,5-thiadiozolidin-2-yl)pyrrolidine-1-carbonitrile] | < 100
19 | N#CN1CC[C@H](N2CCN(c3cccc(-c4ccccc4)n3)S2(=O)=O)C1 [Example 36, (S)-3-(1,1-dioxido-5-(6-phenylpyridin-2-yl)-1,2,5-thiadiazolidin-2-yl)pyrrolidine-1-carbonitrile] | < 100
20 | N#CN1CCC(N2CCCN(c3ccccc3)S2(=O)=O)C1 (stereo not shown) [Example 38, 3-(1,1-dioxido-6-phenyl-1,2,6-thiadiazinan-2-yl)pyrrolidine-1-carbonitrile] | 100 to 1000
21 | C[C@H]1CN(C#N)C[C@@H]1N1CCN(c2cccc(N3CCN(C)CC3)c2)S1(=O)=O [Example 40, (3S,4R)-3-methyl-4-(5-(3-(4-methylpiperazin-1-yl)phenyl)-1,1-dioxido-1,2,5-thiadiazolidin-2-yl)pyrrolidine-1-carbonitrile] | 100 to 1000
22 | COc1ccc(N2CCN([C@@H]3CCN(C#N)C3)S2(=O)=O)cc1-c1ccccc1 [Example 42, (R)-3-(5-(6-methoxy-[1,1′-biphenyl]-3-yl)-1,1-dioxido-1,2,5-thiadiazolidin-2-yl)pyrrolidine-1-carbonitrile] | < 100
23 | N#CN1CC[C@@H](NS(=O)(=O)Nc2ccc3nc(C(F)(F)F)[nH]c3c2)C1 [Example 45] | 1000 to 10000
24 | N#CN1CC[C@@H](N2CCCN(c3ccc4nc(C(F)(F)F)[nH]c4c3)S2(=O)=O)C1 [Example 46, (R)-3-(1,1-dioxido-6-(2-(trifluoromethyl)-1H-benzo[d]imidazol-6-yl)-1,2,6-thiadiazinan-2-yl)pyrrolidine-1-carbonitrile] | 1000 to 10000
25 | N#CN1CC[C@H](N2CCN(c3cccc(-c4ccccn4)c3)S2(=O)=O)C1 [Example 47, (S)-3-(1,1-dioxido-5-(3-(pyridin-2-yl)phenyl)-1,2,5-thiadiazolidin-2-yl)pyrrolidine-1-carbonitrile] | 100 to 1000
26 | N#CN1CC[C@H](N2CCN(c3cccc(-c4cccnc4)c3)S2(=O)=O)C1 [Example 48, (S)-3-(1,1-dioxido-5-(3-(pyridin-3-yl)phenyl)-1,2,5-thiadiazolidin-2-yl)pyrrolidine-1-carbonitrile] | 100 to 1000
27 | N#CN1CC[C@@H](N2CCN(c3ccnc(N4CCOCC4)c3)S2(=O)=O)C1 [Example 50, (R)-3-(5-(2-morpholinopyridin-4-yl)-1,1-dioxido-1,2,5-thiadiazolidin-2-yl)pyrrolidine-1-carbonitrile] | < 100
28 | N#CN1CC[C@@H](N2CCN(c3nccc(N4CCOCC4)n3)S2(=O)=O)C1 [Example 51, (R)-3-(5-(4-morpholinopyrimidin-2-yl)-1,1-dioxido-1,2,5-thiadiazolidin-2-yl)pyrrolidine-1-carbonitrile] | 100 to 1000

— patent publication US11091488B2 (MISSION THERAPEUTICS LIMITED, priority 2015, dated 2021)
